From PubChem BioAssay (NCI)
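96-well plates; 48 h exposure; 5 concentrations. Endpoints by linear interpolation between flanking doses. Not reached: highest tested concentration assigned. Here, GI50 denotes the concentration required for 50% inhibition of growth. TGI is the concentration that stops growth completely.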

Experiments:
Assay in all cases: NCI anticancer screen, dose series, 48 h
[1] = tested on: NCI-H23 lung
[2] = tested on: NCI-H460 lung
[3] = tested on: NCI-H522 lung
[4] = tested on: NCI/ADR-RES ovarian
[5] = tested on: OVCAR-3 ovarian
[6] = tested on: OVCAR-4 ovarian
[7] = tested on: OVCAR-5 ovarian
[8] = tested on: OVCAR-8 ovarian
[9] = tested on: PC-3 prostate
[10] = tested on: RPMI-8226 leukemia
[11] = tested on: RXF 393 renal
[12] = tested on: SF-268 CNS
[13] = tested on: SF-295 CNS
[14] = tested on: SF-539 CNS
[15] = tested on: SK-MEL-2 melanoma
[16] = tested on: SK-MEL-28 melanoma
[17] = tested on: SK-MEL-5 melanoma
[18] = tested on: SK-OV-3 ovarian
[19] = tested on: SN12C renal
[20] = tested on: SNB-19 CNS
[21] = tested on: SNB-75 CNS
[22] = tested on: SR leukemia
[23] = tested on: SW-620 colon
[24] = tested on: T-47D breast
[25] = tested on: TK-10 renal
[26] = tested on: U251 CNS
[27] = tested on: UACC-257 melanoma
[28] = tested on: UACC-62 melanoma
[29] = tested on: UO-31 renal

COc1cc(C(=O)/C=C/c2c(C)n([O-])c3ccc(C(F)(F)F)cc3[n+]2=O)cc(OC)c1OC
GI50 [1]: 3.8 µM | TGI [1]: 15.1 µM | GI50 [2]: 10.7 µM | TGI [2]: 29.1 µM | GI50 [3]: 0.232 µM | TGI [3]: 0.784 µM | GI50 [4]: 3.54 µM | TGI [4]: 97.7 µM | GI50 [5]: 1.37 µM | TGI [5]: 3.07 µM | GI50 [6]: 7.1 µM | TGI [6]: > 100 µM | GI50 [7]: 15.2 µM | TGI [7]: > 83.4 µM | GI50 [8]: 2.99 µM | TGI [8]: > 31.1 µM | GI50 [9]: 6.41 µM | TGI [9]: > 100 µM | GI50 [10]: 5.23 µM | TGI [10]: 48.9 µM | GI50 [11]: 1.44 µM | TGI [11]: 2.86 µM | GI50 [12]: 12.8 µM | TGI [12]: 37.4 µM | GI50 [13]: 26.2 µM | TGI [13]: > 90.7 µM | GI50 [14]: 3.7 µM | TGI [14]: 15 µM | GI50 [15]: 4 µM | TGI [15]: 13.5 µM | GI50 [16]: 7.62 µM | TGI [16]: 23.6 µM | GI50 [17]: 17.6 µM | TGI [17]: > 57.3 µM | GI50 [18]: 27.1 µM | TGI [18]: > 100 µM | GI50 [19]: 6.89 µM | TGI [19]: > 100 µM | GI50 [20]: 36.1 µM | TGI [20]: > 100 µM | GI50 [21]: 10.9 µM | TGI [21]: 24.6 µM | GI50 [22]: 2.67 µM | TGI [22]: > 100 µM | GI50 [23]: 0.68 µM | TGI [23]: 2.04 µM | GI50 [24]: 2.15 µM | TGI [24]: 7.83 µM | GI50 [25]: 1.41 µM | TGI [25]: 2.82 µM | GI50 [26]: 8.83 µM | TGI [26]: 24.1 µM | GI50 [27]: 1.78 µM | TGI [27]: 3.94 µM | GI50 [28]: 3.62 µM | TGI [28]: 13.8 µM | GI50 [29]: 1.45 µM | TGI [29]: 3.51 µM
